Our source for the IC50 values is patent publication US9120804B2, “8-substituted 2-amino-[1,2,4] triazolo [1, 5-A] pyrazines as Syk tryrosine kinase inhibitors and GCN2 serin kinase inhibitors” (Merck Patent GmbH, priority 2012, dated 2015).

This experiment deals with T1, SYK (Homo sapiens, UniProt P43405).
T1 construct: 2.5 nM SYK, 400 nM Biotin-Aha-Aha-KEDPDYEWPSAKK
The experiment in a line: SYK flash plate assay (enzyme assay). Type of experiment: biochemical. Here is the method: The kinase assay is performed either as 384-well Flashplate assay (for e.g. Topcount measurement) or as 384-well Image-Flashplate assay (for LEADseeker measurement).
2.5 nM SYK, 400 nM Biotin-Aha-Aha-KEDPDYEWPSAKK
and 10 μM ATP (spiked with 0.3 μCi 33P-ATP/well) are incubated in a total volume of 50 μl (60 mM Hepes, 10 mM MgCl2, 1.2 mM Dithiothreitol, 0.02% Brij35, 0.1% BSA, pH 7.5) with or without test compound for 1 hours at 30° C. The reaction is stopped with 25 μl 200 mM EDTA. After 30 Min at 30° C. the liquid is removed and each well washed thrice with 100 μl 0.9% sodium chloride solution. Non-specific reaction is determined in presence of […] Staurosporine. Radioactivity is measured with Topcount (when using Flashplates) or with LEADseeker (when using Image-Flashplates) respectively. Results (e.g. IC50-values) are calculated with program tools provided by the IT-department (e.g. Symyx Assay Explorer, Genedata Screener). In Vivo Assays CIA
The molecule `CC1(C)CC(=O)Nc2cc(Nc3nc4c(N5CC(O)CC5c5ccccc5)nccn4n3)ccc21` (stereo not drawn) [E96, 7-[8-(4-hydroxy-2-phenyl-pyrrolidin-1-yl)-[1,2,4]triazolo[1,5-a]pyrazin-2-ylamino]-4,4-dimethyl-3,4-dihydro-1H-quinolin-2-one] returned an IC50 of 300 to 3000 nM.

As to `Cc1nn(C)c(C)c1-c1nccn2nc(Nc3ccc4c(c3)NC(=O)C4(C)C)nc12` [C68, 3,3-dimethyl-6-[8-(1,3,5-trimethyl-1H-pyrazol-4-yl)-[1,2,4]triazolo[1,5-a]pyrazin-2-ylamino]-1,3-dihydro-indol-2-one], the IC50 was in the range of 300 to 3000 nM.

Turning to `C[S+]([O-])c1ccc(Nc2nc3c(-c4ccccc4-c4ccccc4)nccn3n2)cc1` (stereo not drawn) [C31, (8-Biphenyl-2-yl-[1,2,4]triazolo[1,5-a]pyrazin-2-yl)-(4-methanesulfinyl-phenyl)-amine], the IC50 lay in the range of 3000 to 50000 nM.

On to `CC1(C)C(=O)Nc2cc(Nc3nc4c(N[C@H]5CC[C@H](O)CC5)nccn4n3)ccc21` [C76, trans-6-[8-(4-hydroxy-cyclohexylamino)-[1,2,4]triazolo[1,5-a]pyrazin-2-ylamino]-3,3-dimethyl-1,3-dihydro-indol-2-one], for which the IC50 was in the range of 300 to 3000 nM. Then `CC1(C)C(=O)Nc2cc(Nc3nc4c(N[C@H]5C[C@H](N)C5)nccn4n3)ccc21` [C97, 6-[8-(trans-3-amino-cyclobutylamino)-[1,2,4]triazolo[1,5-a]pyrazin-2-ylamino]-3,3-dimethyl-1,3-dihydro-indol-2-one], with 300 to 3000 nM; and `CC1(C)C(=O)Nc2cc(Nc3nc4c(N5CCCC5c5ccccc5)nccn4n3)ccc21` (stereo not drawn) [C100, 3,3-dimethyl-6-[8-(2-phenyl-pyrrolidin-1-yl)-[1,2,4]triazolo[1,5-a]pyrazin-2-ylamino]-1,3-dihydro-indol-2-one], with 300 to 3000 nM. Then `CC1(C)C(=O)Nc2cc(Nc3nc4c(NCCN)nccn4n3)ccc21` [E110, 6-[8-(2-amino-ethylamino)-[1,2,4]triazolo[1,5-a]pyrazin-2-ylamino]-3,3-dimethyl-1,3-dihydro-indol-2-one], with 300 to 3000 nM.

`CC1(C)CCNc2cc(Nc3nc4c(N5CC[C@]6(CNC(=O)C6)C5)nccn4n3)ccc21` [E86, (S)-7-[2-(4,4-dimethyl-1,2,3,4-tetrahydro-quinolin-7-ylamino)-[1,2,4]triazolo[1,5-a]pyrazin-8-yl]-2,7-diaza-spiro[4.4]nonan-3-one]: the IC50 lay within 100 to 300 nM.

As to `CC1(C)C(=O)Nc2cc(Nc3nc4c(N5CC[C@@]6(CCNC6)C5)nccn4n3)ccc21` [E106, 6-[(R)-8-(2,7-diaza-spiro[4.4]non-2-yl)-[1,2,4]triazolo[1,5-a]pyrazin-2-ylamino]-3,3-dimethyl-1,3-dihydro-indol-2-one], the IC50 was less than 100 nM. In the case of `CC1CCCN1c1nccn2nc(Nc3ccc4c(c3)NC(=O)C4(C)C)nc12` (stereo not drawn) [E42, 3,3-dimethyl-6-[8-(2-methyl-pyrrolidin-1-yl)-[1,2,4]triazolo[1,5-a]pyrazin-2-ylamino]-1,3-dihydro-indol-2-one] it was less than 100 nM; in that of `CC1(C)C(=O)Nc2cc(Nc3nc4c(NCC5CCCNC5)nccn4n3)ccc21` (stereo not drawn) [E79, 3,3-dimethyl-6-{8-[(piperidin-3-ylmethyl)-amino]-[1,2,4]triazolo[1,5-a]pyrazin-2-ylamino}-1,3-dihydro-indol-2-one], 300 to 3000 nM. Then `CC1(C)C(=O)Nc2cc(Nc3nc4c(NCC5CCNCC5)nccn4n3)ccc21` [E91, 3,3-dimethyl-6-{8-[(piperidin-4-ylmethyl)-amino]-[1,2,4]triazolo[1,5-a]pyrazin-2-ylamino}-1,3-dihydro-indol-2-one], with less than 100 nM; and `Cn1cc(-c2nccn3nc(Nc4ccc(CS(=O)(=O)O)c(N)c4)nc23)cn1` [E36, {2-amino-4-[8-(1-methyl-1H-pyrazol-4-yl)-[1,2,4]triazolo[1,5-a]pyrazin-2-ylamino]-phenyl}-methanesulfonic acid], with 100 to 300 nM; and `COc1cc(Nc2nc3c(N4CCCC(C(N)=O)C4)nccn3n2)cc(OC)c1` (stereo not drawn) [D2, 1-[2-(3,5-dimethoxy-phenylamino)-[1,2,4]triazolo[1,5-a]pyrazin-8-yl]-piperidine-3-carboxylic acid amide], with 300 to 3000 nM. In the case of `CC1(C)C(=O)Nc2cc(Nc3nc4c(N5C[C@H](O)C[C@@H]5c5ccccc5)nccn4n3)ccc21` [E6, 6-[8-(4(2R,4R)-4-hydroxy-2-phenyl-pyrrolidin-1-yl)-[1,2,4]triazolo[1,5-a]pyrazin-2-ylamino]-3,3-dimethyl-1,3-dihydro-indol-2-one] it was 100 to 300 nM. `CC1(C)C(=O)Nc2cc(Nc3nc4c(NS(=O)(=O)c5ccc(N)cc5)nccn4n3)ccc21` [E118, 4-amino-N-[2-(3,3-dimethyl-2-oxo-2,3-dihydro-1H-indol-6-ylamino)-[1,2,4]triazolo[1,5-a]pyrazin-8-yl]benzenesulfonamide] returned an IC50 of 3000 to 50000 nM. Molecule `CC1(C)C(=O)Nc2cc(Nc3nc4c(N5CCC6(CCNC6=O)C5)nccn4n3)ccc21` (stereo not drawn) [E19, 3,3-dimethyl-6-[8-(6-oxo-2,7-diaza-spiro[4.4]non-2-yl)-[1,2,4]triazolo[1,5-a]pyrazin-2-ylamino]-1,3-dihydro-indol-2-one] had a 50% inhibitory concentration (IC50) of 100 to 300 nM. In the case of `CC1(C)C(=O)Nc2cc(Nc3nc4c(N5CCCC6(C5)NC(=O)NC6=O)nccn4n3)ccc21` (stereo not drawn) [C110, 7-[2-(3,3-dimethyl-2-oxo-2,3-dihydro-1H-indol-6-ylamino)-[1,2,4]triazolo[1,5-a]pyrazin-8-yl]-1,3,7-triaza-spiro[4.5]decane-2,4-dione] it was 300 to 3000 nM; in that of `CC1(C)C(=O)Nc2cc(Nc3nc4c(N5CCC6(C5)OCCO6)nccn4n3)ccc21` [E10, 6-[8-(1,4-dioxa-7-aza-spiro[4.4]non-7-yl)-[1,2,4]triazolo[1,5-a]pyrazin-2-ylamino]-3,3-dimethyl-1,3-dihydro-indol-2-one], 100 to 300 nM. Then `CC1(C)CN(c2nccn3nc(Nc4ccc5c(c4)NC(=O)C5(C)C)nc23)c2cc(Cl)ccc21` [E100, 6-[8-(6-chloro-3,3-dimethyl-2,3-dihydro-indol-1-yl)-[1,2,4]triazolo[1,5-a]pyrazin-2-ylamino]-3,3-dimethyl-1,3-dihydro-indol-2-one], with 300 to 3000 nM. On to `CC(=O)N(C)C1CCN(c2nccn3nc(Nc4ccc5c(c4)NC(=O)C5(C)C)nc23)C1` (stereo not drawn) [E11, N-{1-[2-(3,3-dimethyl-2-oxo-2,3-dihydro-1H-indol-6-ylamino)-[1,2,4]triazolo[1,5-a]pyrazin-8-yl]-pyrrolidin-3-yl}-N-methyl-acetamide], for which the IC50 is 300 to 3000 nM.

For the molecule `CC1CCC(C)N1c1nccn2nc(Nc3ccc4c(c3)NC(=O)C4(C)C)nc12` (stereo not drawn) [E43, 6-[8-(2,5-dimethyl-pyrrolidin-1-yl)-[1,2,4]triazolo[1,5-a]pyrazin-2-ylamino]-3,3-dimethyl-1,3-dihydro-indol-2-one], the half-inhibitory concentration (IC50) was less than 100 nM. In the case of `CC1(C)C(=O)Nc2cc(Nc3nc4c(N5CCCc6ccccc65)nccn4n3)ccc21` [E108, 6-[8-(3,4-dihydro-2H-quinolin-1-yl)-[1,2,4]triazolo[1,5-a]pyrazin-2-ylamino]-3,3-dimethyl-1,3-dihydro-indol-2-one] it was 300 to 3000 nM. In the case of `CC1(C)C(=O)Nc2cc(Nc3nc4c(N5CCC(S(N)(=O)=O)CC5)nccn4n3)ccc21` [E39, 1-[2-(3,3-dimethyl-2-oxo-2,3-dihydro-1H-indol-6-ylamino)-[1,2,4]triazolo[1,5-a]pyrazin-8-yl]-piperidine-4-sulfonic acid amide] it was less than 100 nM. Molecule `Cn1cc(-c2nccn3nc(Nc4ccc5c(c4)NS(=O)(=O)C5)nc23)cn1` [E23, (2,2-dioxo-2,3-dihydro-1H-2I6-benzo[c]isothiazol-6-yl)-[8-(1-methyl-1H-pyrazol-4-yl)-[1,2,4]triazolo[1,5-a]pyrazin-2-yl]-amine] registered an IC50 of 100 to 300 nM. In turn, `CC1Cc2ccccc2N1c1nccn2nc(Nc3ccc4c(c3)NC(=O)C4(C)C)nc12` (stereo not drawn) [E137, 3,3-dimethyl-6-[8-(2-methyl-2,3-dihydro-indol-1-yl)-[1,2,4]triazolo[1,5-a]pyrazin-2-ylamino]-1,3-dihydro-indol-2-one] registered an IC50 of less than 100 nM. The molecule `CC1(C)C(=O)Nc2cc(Nc3nc4c(-c5cnn(C6CCOCC6)c5)nccn4n3)ccc21` [E148, 3,3-dimethyl-6-{8-[1-(tetrahydro-pyran-4-yl)-1H-pyrazol-4-yl]-[1,2,4]triazolo[1,5-a]pyrazin-2-ylamino}-1,3-dihydro-indol-2-one] returned an IC50 of less than 100 nM. With `CC1(C)C(=O)Nc2cc(Nc3nc4c(N[C@@H]5CCCNC5)nccn4n3)ccc21` [C87, 3,3-dimethyl-6-[8-((R)-piperidin-3-ylamino)-[1,2,4]triazolo[1,5-a]pyrazin-2-ylamino]-1,3-dihydro-indol-2-one], the IC50 was 100 to 300 nM. Molecule `CC1=NOCC2(CCN(c3nccn4nc(Nc5ccc6c(c5)NC(=O)C6(C)C)nc34)CC2)C1` [E58, 3,3-dimethyl-6-[8-(4-methyl-2-oxa-3,9-diaza-spiro[5.5]undec-3-en-9-yl)-[1,2,4]triazolo[1,5-a]pyrazin-2-ylamino]-1,3-dihydro-indol-2-one] yielded an IC50 of 100 to 300 nM. In the case of `CC1(C)C(=O)Nc2cc(Nc3nc4c(N5C[C@@H](CO)C[C@H]5c5ccccc5)nccn4n3)ccc21` (single isomer, unassigned) [E95, 6-[8-((cis1)-4-hydroxymethyl-2-phenyl-pyrrolidin-1-yl)-[1,2,4]triazolo[1,5-a]pyrazin-2-ylamino]-3,3-dimethyl-1,3-dihydro-indol-2-one] it was less than 100 nM.
